Source: US12492173B2, “Herbicidal substituted N-tetrazolyl aryl carboxamides” (Bayer Aktiengesellschaft, priority 2019, dated 2025)

Tests used:
Type in all cases: in vivo
Amaranthus retroflexus = experiment: Pre-emergence herbicidal action, AMARE; settings: dosage 320 g/ha; for herbicidal activity AMARE: scored visually after 3 weeks vs untreated controls (100% = plants have died)
Method in brief: (§1)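 Sown pots (sandy loam) sprayed pre-emergence → greenhouse → visual rating at 3 weeks; % activity vs untreated control, 100% = dead.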

Echinochloa crus-galli = experiment: Pre-emergence herbicidal action, ECHCG; design: key to Herbicidal action against ECHCG: % activity: 100 = plants have died, 0 = like control plants; settings: for herbicidal activity ECHCG: scored visually after 3 weeks vs untreated controls (100% = plants have died)
Method in brief: as §1

Stellaria media [1] = experiment: Pre-emergence herbicidal action, STEME; design: key to Herbicidal action against STEME: % activity: 100 = plants have died, 0 = like control plants; settings: for herbicidal activity STEME: scored visually after 3 weeks vs untreated controls (100% = plants have died)
Method in brief: as §1

Abutilon theophrasti = experiment: Post-emergence herbicidal action, ABUTH; design: key: % herbicidal action vs untreated; 100 = plants died, 0 = like control
Method in brief: (§2)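 Greenhouse post-emergence test: weeds sown in sandy loam were sprayed once at one leaf, 2 to 3 weeks from sowing, with aqueous WP or EC preparations carrying 0.2% wetting agent. Effect is scored visually after about 3 weeks.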

Stellaria media [2] = experiment: Post-emergence herbicidal action, STEME; design: key: % herbicidal action vs untreated; 100 = plants died, 0 = like control
Method in brief: as §2

Viola tricolor = experiment: Post-emergence herbicidal action, VIOTR; design: key: % herbicidal action vs untreated; 100 = plants died, 0 = like control
Method in brief: as §2

[3] = comparative experiment, post-emergence, 5 g of a.i./ha
[4] = comparative experiment, 20 g of a.i./ha

| SMILES | herbicidal activity AMARE (Amaranthus retroflexus) [%] | herbicidal activity ECHCG (Echinochloa crus-galli; dosage 320 g/ha) [%] | herbicidal activity STEME (Stellaria media [1]; dosage 320 g/ha) [%] | herbicidal action ABUTH (Abutilon theophrasti; post-emergence, dosage 80 g/ha) [%] | herbicidal action STEME (Stellaria media [2]; post-emergence, dosage 80 g/ha) [%] | herbicidal action VIOTR (Viola tricolor; post-emergence, dosage 80 g/ha) [%] | herbicidal action ABUTH (Abutilon theophrasti; Dosage 80 g/ha) | herbicidal action STEME (Stellaria media [2]; Dosage 80 g/ha) | herbicidal action VIOTR (Viola tricolor; Dosage 80 g/ha) | Herbicidal action against STEME (Stellaria media [2]; post-emergence, dosage 80 g/ha) | Herbicidal action against VIOTR (Viola tricolor; [3]) | Herbicidal action against VIOTR (Viola tricolor; post-emergence, dosage 80 g/ha) | Herbicidal action against ECHCG (Echinochloa crus-galli; [4]) | Herbicidal action against STEME (Stellaria media [1]; [4]) | herbicidal action AMARE (Amaranthus retroflexus) [%] | herbicidal action ECHCG (Echinochloa crus-galli; dosage 320 g/ha) [%] | herbicidal action STEME (Stellaria media [1]; dosage 320 g/ha) [%] |
| --- | --- | --- | --- | --- | --- | --- | --- | --- | --- | --- | --- | --- | --- | --- | --- | --- | --- |
| Cn1nnnc1NC(=O)c1ccc(C(F)(F)F)c(C[S+](C)[O-])c1Cl (racemic) [Example 1-297] | 100 | 100 | 90 | 80 | 100 | 100 |  |  |  |  |  |  |  |  |  |  |  |
| Cc1c(C(=O)Nc2nnnn2C)ccc(C(F)(F)F)c1C[S+](C)[O-] (stereo not drawn) [Example 1-84] |  | 100 | 100 | 90 | 100 | 100 |  |  |  |  |  |  |  |  |  |  |  |
| Cc1c(C(=O)Nc2nnnn2C)ccc(C(F)(F)F)c1CS(C)(=O)=O [Example 1-85] | 100 | 100 | 100 |  |  |  | 90 | 100 | 100 |  |  |  |  |  |  |  |  |
| CCSCc1c(C(F)(F)F)ccc(C(=O)Nc2nnnn2C)c1C [Example 1-86] | 100 | 100 |  | 80 | 100 | 100 |  |  |  |  |  |  |  |  |  |  |  |
| CSCc1c(C(F)F)ccc(C(=O)Nc2nnnn2C)c1C [Example 1-107, 4-(difluoromethyl)-2-methyl-3-[(methylsulfanyl)methyl]-N-(1-methyl-1H-tetrazol-5-yl)benzamide] | 100 | 100 | 90 |  |  |  | 80 | 100 | 100 |  |  |  |  |  |  |  |  |
| Cc1c(C(=O)Nc2nnnn2C)ccc(C(F)F)c1CS(C)(=O)=O [Example 1-109] | 100 | 90 |  |  |  |  | 90 | 100 | 100 |  |  |  |  |  |  |  |  |
| COc1c(C(=O)Nc2nnnn2C)ccc(C(F)(F)F)c1CSC [Example 1-134] | 100 | 100 |  |  |  |  | 100 | 100 | 100 | 90 | 100 | 100 |  |  |  |  |  |
| CSCc1c(C(F)(F)F)ccc(C(=O)Nc2nnnn2C)c1SC [Example 1-161] | 100 | 100 | 100 |  |  |  | 90 | 100 | 100 |  |  |  |  |  |  |  |  |
| CCSCc1c(C(F)F)ccc(C(=O)Nc2nnnn2C)c1SCC [Example 1-191] | 100 | 100 | 100 |  |  |  | 100 | 100 | 100 |  |  |  |  |  |  |  |  |
| CSCc1c(C(F)(F)F)ccc(C(=O)Nc2nnnn2C)c1F [Example 1-242] | 100 | 100 | 90 |  |  |  | 90 | 100 | 100 |  |  |  |  |  |  |  |  |
| Cn1nnnc1NC(=O)c1ccc(C(F)(F)F)c(C[S+](C)[O-])c1F (stereo not drawn) [Example 1-243] | 100 | 100 | 90 |  |  |  | 90 | 100 | 100 |  |  |  |  |  |  |  |  |
| Cn1nnnc1NC(=O)c1ccc(C(F)(F)F)c(CS(C)(=O)=O)c1F [Example 1-244] | 100 | 100 | 90 |  |  |  | 90 | 100 | 100 |  |  |  |  |  |  |  |  |
| Cc1ccc(C(=O)Nc2nnnn2C)c(Cl)c1CS(C)(=O)=O [Example 1-289] | 100 | 90 | 90 |  |  |  |  | 100 | 100 |  |  |  |  |  |  |  |  |
| CSCc1c(C(F)(F)F)ccc(C(=O)Nc2nnnn2C)c1Cl [Example 1-296] | 100 | 100 | 100 | 100 | 100 | 100 |  |  |  |  | 100 |  |  |  |  |  |  |
| Cn1nnnc1NC(=O)c1ccc(C(F)(F)F)c(CS(C)(=O)=O)c1Cl [Example 1-298] | 100 | 100 | 100 | 80 | 100 | 100 |  |  |  |  |  |  |  |  |  |  |  |
| CCS(=O)(=O)Cc1c(C(F)(F)F)ccc(C(=O)Nc2nnnn2C)c1Cl [Example 1-301] | 100 | 100 | 90 |  |  |  | 80 | 100 | 100 |  |  |  |  |  |  |  |  |
| C=CCSCc1c(C(F)(F)F)ccc(C(=O)Nc2nnnn2C)c1Cl [Example 1-308] | 100 | 100 | 100 | 100 | 100 | 90 |  |  |  |  |  |  |  |  |  |  |  |
| CSCc1c(C(F)(F)F)ccc(C(=O)Nc2nnnn2C)c1Br [Example 1-380] | 100 | 100 | 90 | 90 | 100 | 100 |  |  |  |  |  |  |  |  |  |  |  |
| Cn1nnnc1NC(=O)c1ccc(C(F)(F)F)c(C[S+](C)[O-])c1Br (stereo not drawn) [Example 1-381] | 100 | 100 | 90 | 100 | 100 | 100 |  |  |  |  |  |  | 90 | 90 |  |  |  |
| Cn1nnnc1NC(=O)c1ccc(C(F)(F)F)c(CS(C)(=O)=O)c1Br [Example 1-382, 2-bromo-3-[(methylsulfonyl)methyl]-N-(1-methyl-1H-tetrazol-5-yl)-4-(trifluoromethyl)benzamide] | 100 | 100 | 90 |  |  |  | 100 | 100 | 100 |  |  |  |  |  |  |  |  |
| Cn1nnnc1NC(=O)c1ccc(Cl)c(CS(C)(=O)=O)c1Cl [Example 1-561] | 100 | 100 | 90 |  |  |  | 90 | 100 | 100 |  |  |  |  |  |  |  |  |
| CCn1nnnc1NC(=O)c1ccc(S(C)(=O)=O)c(CS(C)(=O)=O)c1C [Example 2-39] |  |  |  |  |  |  | 90 | 100 | 100 |  |  |  |  |  | 100 | 90 | 100 |
| CCn1nnnc1NC(=O)c1ccc(C(F)F)c(CSC)c1C [Example 2-107] | 100 | 100 | 90 |  |  |  | 90 | 100 | 100 |  |  |  |  |  |  |  |  |
| CCn1nnnc1NC(=O)c1ccc(C(F)(F)F)c(C[S+](C)[O-])c1OC (stereo not drawn) [Example 2-135] | 100 | 100 | 90 |  |  |  | 100 | 100 | 100 |  |  |  |  |  |  |  |  |
| CCn1nnnc1NC(=O)c1ccc(C(F)(F)F)c(CS(C)(=O)=O)c1OC [Example 2-136] | 100 | 100 | 100 |  |  |  | 100 | 100 | 100 |  |  |  |  |  |  |  |  |
| CCn1nnnc1NC(=O)c1ccc(C(F)(F)F)c(CSC)c1SC [Example 2-161] | 100 | 100 | 100 | 90 | 100 | 100 |  |  |  |  |  |  |  |  |  |  |  |
| CCn1nnnc1NC(=O)c1ccc(C(F)(F)F)c(CS(C)(=O)=O)c1SC [Example 2-163] | 100 | 100 | 90 |  |  |  | 100 | 100 | 100 |  |  |  |  |  |  |  |  |
| CCn1nnnc1NC(=O)c1ccc(C)c(CSC)c1Cl [Example 2-287] | 100 | 100 | 80 |  |  |  | 80 | 100 | 100 |  |  |  |  |  |  |  |  |
| CCCn1nnnc1NC(=O)c1ccc(C(F)(F)F)c(CSC)c1Br [Example 3-380] | 100 | 100 |  |  |  |  | 80 | 100 | 100 |  |  |  |  |  |  |  |  |
